Patent US20250019385A1, “SPIROCYCLIC ANNULATED 2-AMINO-3-CYANO THIOPHENES AND DERIVATIVES FOR THE TREATMENT OF CANCER” (Boehringer Ingelheim International GmbH, priority 2023, published 2025)

Columns and labels:
LOVO cells = assay: LOVO CTG proliferation assay (120 h) (CRC, G13D); format: cell-based; conditions: Homo sapiens
Method: (§1) LOVO cells (ATCC No. CCL-229) are dispensed into black 384-well plates, flat and clear bottom (Greiner, PNr. 781091) at a density of 1000 cells per well in 60 μl DMEM (Sigma D6429)+10% FCS (fetal calf serum, HyClone, SH30084.03). Cells are incubated overnight at 37° C. in a humidified tissue culture incubator at 5% CO2. Compounds (10 mM stock in DMSO) are added at logarithmic dose series using the ECHO acoustic liquid handler system (Beckman Coulter), normalizing for added DMSO and including DMSO controls. All compound treatments are performed in technical duplicates. For the TO time point measurement, untreated cells are analyzed at the time of compound addition. Plates are incubated for 120 h, and cell viability is measured using CellTiter-Glo luminescent cell viability reagent (Promega product code G7570). Viability (stated as percent of control) is defined as relative luminescence units RLU of each well divided by the RLU of cells in DMSO controls. IC50 values are determined from viability measurements by non-linear regression using a four-parameter model.
(§2) IC50 values of representative compounds according to the invention measured with these assays in the indicated cell lines are presented in Table 46.

[1] = target: KRAS (G12C)::SOS1 protein-protein interaction (Homo sapiens (Human), UniProt P01116, C118S/C51S/C80L/G12C); assay: KRAS::SOS1 AlphaScreen binding assay (KRAS G12C); conditions: GDP
Description: (§3) This assay can be used to examine the potency with which compounds according to the invention binding to (mutated) KRAS inhibit the protein-protein interaction between SOS1 and (mutated) KRAS e.g. KRAS G12C, KRAS G12D. […] Low IC50 values in this assay setting are indicative of strong inhibition of protein-protein interaction between SOS1 and KRAS:
(§4) These assays measure the inhibitory effect of compounds on KRAS mutant protein-protein interactions using the Alpha Screen technology by Perkin Elmer.
(§5) The following (mutant) enzyme forms of KRAS and interacting proteins are used in these assays at the given concentrations:
KRAS (G12C) 1-169, N-terminal 6His-tag for purification, cleaved off, C-terminal avi-tag, biotinylated, mutations: C51S, C80L, C118S (in house); final assay concentration 7.5 nM and SOS1 564-1049, N-terminal 229 GST-tag, TEV cleavage site (Viva Biotech Ltd); final assay concentration 5 nM;
(§6) Test compounds dissolved in DMSO are dispensed onto assay plates (Proxiplate 384 PLUS, white, PerkinElmer; 6008289) using an Access Labcyte Workstation with the Labcyte Echo 55x. For the chosen highest assay concentration of 100 μM, 150 nL of compound solution are transferred from a 10 mM DMSO compound stock solution. A series of eleven fivefold dilutions per compound are transferred to the assay plate, compound dilutions are tested in duplicates. DMSO are added as backfill to a total volume of 150 nL.
(§7) The assays run on a fully automated robotic system in a darkened room below 100 Lux. To 150 nl of compound dilution 10 μl of a mix including KRAS mutant protein, SOS1 (final assay concentrations see above) and GDP nucleotide (Sigma G7127; final assay concentration 10 μM) in assay buffer (1×PBS, 0.1% BSA, 0.05% Tween 20) are added into columns 1-24.
(§8) After 30 minutes incubation time 5 μl of Alpha Screen bead mix in assay buffer are added into columns 1-23. Bead mix consists of AlphaLISA Glutathione Acceptor Beads (PerkinElmer, Cat No AL109) and AlphaScreen Streptavidin Donor Beads (PerkinElmer Cat No 6760002) in assay buffer at a final assay concentration of 10 μg/mL each.
(§9) Plates are kept at room temperature in a darkened incubator. After an additional 60 minutes incubation time the signal is measured in a PerkinElmer Envision HTS Multilabel Reader using the AlphaScreen specs from PerkinElmer.
(§10) Each plate contains up to 16 wells of a negative control depending on the dilution procedure (platewise or serial) (DMSO instead of test compound; with KRAS mutant::SOS1 GOP mix and bead mix; column 23) and 16 wells of a positive control (DMSO instead of test compound; with KRAS mutant::SOS1 GOP mix w/o bead mix; column 24).
(§11) As internal control known inhibitors of KRAS mutant::SOS1 interaction can be measured on each compound plate.
(§12) IC50 values are calculated and analyzed with Boehringer Ingelheim's MEGALAB C50 application using a 4 parametric logistic model.
(§13) Tables of example compounds disclosed herein contain IC50 values determined using the above assays (see Table 43).

[2] = target: KRAS (G12D)::SOS1 protein-protein interaction (Homo sapiens (Human), UniProt P01116, G12D); assay: KRAS::SOS1 AlphaScreen binding assay (KRAS G12D); conditions: GDP
Description: as §3, §4, §5
KRAS (G12D) 1-169, N-terminal 6His-tag, C-terminal avi-tag (Xtal BioStructures, Inc.); final assay concentration 10 nM and SOS1 564-1049, N-terminal 229 GST-tag, TEV cleavage site (Viva Biotech Ltd); final assay concentration 5 nM;
as §6, §7, §8, §9, §10, §11, §12, §13

AsPC-1 cells = assay: AsPC-1 CTG proliferation assay (120 h) (pancreatic cancer, G12D); format: cell-based; conditions: Homo sapiens, ASPC1
Method: as §1, with “AsPC-1” for “LOVO”, “CRL-1682)” for “No. CCL-229)”, “500” for “1000”, “RPMI ATCC-Formulation (PAN P04-18047)+10%” for “DMEM (Sigma D6429)+10%”
as §2

Sequence of KRAS (G12C)::SOS1 protein-protein interaction (P01116 other isoform, or with tags, fused parts or gaps G12C/C51S/C80L/C118S): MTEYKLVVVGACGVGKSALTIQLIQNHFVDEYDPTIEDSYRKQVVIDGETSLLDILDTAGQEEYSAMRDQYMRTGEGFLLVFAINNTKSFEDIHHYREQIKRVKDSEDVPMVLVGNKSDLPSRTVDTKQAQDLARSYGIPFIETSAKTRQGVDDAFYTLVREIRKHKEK
Sequence of KRAS (G12D)::SOS1 protein-protein interaction (P01116 other isoform, or with tags, fused parts or gaps G12D): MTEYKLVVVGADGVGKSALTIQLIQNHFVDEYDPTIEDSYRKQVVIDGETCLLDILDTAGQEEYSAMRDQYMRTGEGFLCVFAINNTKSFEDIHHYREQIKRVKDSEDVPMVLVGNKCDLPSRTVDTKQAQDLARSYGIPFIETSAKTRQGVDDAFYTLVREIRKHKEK

SMILES	IC50 (LOVO cells)	IC50 [1]	IC50 [2]	IC50 (AsPC-1 cells)
C[C@H](Oc1nc(-c2onc3c2CCC[C@@]32CCCc3sc(N)c(C#N)c32)nc2c1n(C)c(=O)n2[C@H]1CCC[C@@H]1O)[C@@H]1CCCN1C [I-19]	60 nM	2 nM	3 nM	2990 nM
C[C@H](Oc1nc(-c2onc3c2CCC[C@@]32CCCc3sc(N)c(C#N)c32)nc2c1n(C)c(=O)n2[C@@H]1CCOC1)[C@@H]1C[C@@H](F)CN1C [I-22]	43 nM	1 nM	2 nM	1090 nM
C[C@H](Oc1nc(-c2noc3c2CCC[C@@]32CCCc3sc(N)c(C#N)c32)nc2c1CCC21CCOC1)[C@@H]1CCCN1C (stereo partly drawn) [II-18]	141 nM	3 nM	2 nM	315 nM
CC(C)n1c(=O)n([C@@H]2CCOC2)c2nc(-c3onc4c3CCC[C@@]43CCCc4sc(N)c(C#N)c43)nc(O[C@@H](C)[C@@H]3CCCN3C)c21 [I-32]	25 nM	2 nM	2 nM	1500 nM
C[C@H](Oc1nc(-c2noc3c2CCC[C@@]32CCCc3sc(N)c(C#N)c32)nc2c1CN(c1ncccn1)[C@@]21CCOC1)[C@@H]1CCCN1C [II-7b]	130 nM	3 nM	5 nM	629 nM
C[C@H](Oc1nc(-c2onc3c2CCC[C@@]32CCCc3sc(N)c(C#N)c32)nc2c1n(C)c(=O)n2[C@@H]1CC2CCC1O2)[C@@H]1CCCN1C (stereo partly drawn) [I-18]	49 nM	4 nM	8 nM	4320 nM
CO[C@H]1CCN(C)[C@@H]1[C@H](C)Oc1nc(-c2noc3c2CCC[C@@]32CCCc3sc(N)c(C#N)c32)nc2c1n(C)c(=O)n2[C@@H]1CCOC1 [II-1]	2 nM	1 nM	1 nM	323 nM
C[C@H](Oc1nc(-c2onc3c2CCC[C@@]32CCCc3sc(N)c(C#N)c32)nc2c1n(C)c(=O)n2[C@@H]1CCCOC1)[C@@H]1CCCN1C [I-12]	19 nM	1 nM	1 nM	326 nM
C[C@H](Oc1nc(-c2onc3c2CCC[C@@]32CCCc3sc(N)c(C#N)c32)nc2c1[nH]c(=O)n2[C@@H]1CCOC1)[C@@H]1CCCN1C [I-8]	258 nM	1 nM	1 nM	1260 nM
C[C@H](Oc1nc(-c2onc3c2CCC[C@@]32CCCc3sc(N)c(C#N)c32)nc2c1n(C)c(=O)n2[C@@H]1CCOC1)[C@@H]1[C@@H](F)CCN1C [I-5]	29 nM	1 nM	2 nM	224 nM
CCn1c(=O)n([C@@H]2CCOC2)c2nc(-c3onc4c3CCC[C@@]43CCCc4sc(N)c(C#N)c43)nc(O[C@@H](C)[C@@H]3CCCN3C)c21 [I-21]	9 nM	1 nM	1 nM	327 nM
C[C@@H]1COC[C@H](n2c(=O)n(C)c3c(O[C@@H](C)[C@@H]4CCCN4C)nc(-c4onc5c4CCC[C@@]54CCCc5sc(N)c(C#N)c54)nc32)C1 [I-44]	12 nM	2 nM	1 nM	271 nM
